Reference: patent publication US20140041064A1, “COMPOSITIONS AND METHODS FOR I[…] FACTORS AND ANTI-FUNGAL AGENTS” (WORCESTER POLYTECHNIC INSTITUTE, priority 2011, published 2014)

Experiments:
[1] = test system: Macrophage cell line RAW 264.7; details: 0.05 μM DPI; RAW 264.7 macrophages co-cultured overnight with wild type, cap1Δ/Δ and CAP1-complemented C. albicans (1:15)
Protocol: Macrophage cell line RAW 264.7 (ATCC) was used in the assay. The cell line was maintained in DMEM supplemented with 10% fetal bovine serum (FBS). […] Briefly, macrophages on reaching 80-90% confluence were scraped and brought up in DMEM supplemented with 10% FBS and 100 U/ml penicillin and 100 μg/ml streptomycin. 2×10^6 macrophage cells were plated in a 35 mm^2 plate and allowed to adhere for 5 hours. Candida strains were grown overnight at 37° C., diluted 1:10, and allowed to grow for another 5 hours. Candida cells were then washed with supplemented DMEM and were added to the plates containing macrophages in a ratio of 1:15 macrophage and to a final volume of 2 ml. Yeast strain was also grown in parallel without macrophages to calculate % survival. The plates were incubated overnight at 37° C. and 5% CO2. Cells were then brought up to 24 mls in a tube using 0.05% Triton X-100 (v/v) in water to osmotically lyse the macrophage cells. Dilutions were prepared and plated on a YPD plate and grown overnight at 37° C. Colony forming units (CFU) were counted and percentage survival was calculated by taking the ratio of CFU from co culture of Candida and macrophage to the CFU obtained for Candida alone.
Experiments involving diphenyleneiodium chloride (DPI) were performed as mentioned above but with the addition of 0.05 μM DPI from a 31.8 mM stock solution in DMSO. […]

C. albicans = details: hydrogen peroxide at a final concentration of 2 mM; 20° C., 30° C. and 37° C.
Protocol: In vitro, Cap1 regulates the response to oxidative stress, which is a key component of the innate immune response to fungi (Alarco et al., J. Bacteriol. 181:700-708.3, 1999); Enjalbert et al., Mol. Biol. Cell. 17:1018-1032, 2006; Wang et al., Free Radic. Biol. Med. 40:1201-1209, 2006; Zhang et al., Mol. Microbiol. 36:618-629, 2000) and is induced in the presence of neutrophils (Fradin et al., Mol. Microbiol. 56:397-415, 2005). To correlate these studies performed at 30° C. and 37° C., respectively, with our in vivo infection performed at 20° C., we compared the ROS sensitivity profiles of cap1Δ/Δ, CAP1-complemented and the cognate wild type strain at 20° C., 30° C. and 37° C.

SMILES	CFUs of C. albicans recovered from macrophages [1]	growth of CAP1-complemented strain (C. albicans)	growth of reconstructed cap1Δ mutant (C. albicans)
c1ccc2c(c1)[I+]c1ccccc1-2 [DPI, Diphenyleneiodonium chloride]	no difference in CFUs recovered from macrophages between the three strains	–	–
OO [hydrogen peroxide]	–	same growth as the wild type	failed to grow
